We go through three molecules from patent US7598092B2, “Methods, devices, systems and computer program products for stochastic, competitive, force-based analyte detection” (priority 2006, dated 2009).

SMILES strings stand for the structures. Like-named read-outs stand apart in the source and are kept apart here.

One experiment deals with streptavidin (Streptomyces avidinii, UniProt P22629). The conditions noted are these: cited from earlier work.
For a further experiment, the target named is Avidin (Gallus gallus, UniProt P02701). To be noted: cited from earlier work.
Sequence of Avidin (P02701 25-152): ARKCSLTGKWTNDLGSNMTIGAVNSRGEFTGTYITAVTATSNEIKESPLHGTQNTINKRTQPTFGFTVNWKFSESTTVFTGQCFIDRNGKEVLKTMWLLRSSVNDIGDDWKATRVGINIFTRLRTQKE
Another experiment addresses Murine galectin 3 (Mus musculus, UniProt P16110). To be noted: Gaussian fit of 10 pN bins.
The next experiment addresses galectin 3 (Mus musculus, UniProt P16110). Put plainly: isothermal titration calorimetry of soluble ligand binding to galectin 3. Details: species or system Murine.

Sequence of Murine galectin 3 (P16110 whole entry): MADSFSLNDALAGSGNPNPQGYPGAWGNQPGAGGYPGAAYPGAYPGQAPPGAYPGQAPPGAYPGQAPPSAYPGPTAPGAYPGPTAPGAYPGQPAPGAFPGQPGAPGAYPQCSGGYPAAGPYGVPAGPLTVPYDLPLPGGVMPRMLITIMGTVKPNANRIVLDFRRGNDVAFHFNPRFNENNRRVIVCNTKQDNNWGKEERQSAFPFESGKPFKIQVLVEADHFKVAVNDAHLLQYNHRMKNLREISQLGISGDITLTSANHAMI
Sequence of streptavidin (P22629 25-183): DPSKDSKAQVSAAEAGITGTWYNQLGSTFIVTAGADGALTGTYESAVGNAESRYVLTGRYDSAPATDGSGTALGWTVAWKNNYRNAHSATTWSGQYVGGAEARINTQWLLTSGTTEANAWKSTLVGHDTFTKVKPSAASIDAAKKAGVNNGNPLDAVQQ
Sequence of galectin 3 (P16110 whole entry): as the sequence (P16110 whole entry) above

With `O=C(O)CCCC[C@@H]1SC[C@@H]2NC(=O)N[C@@H]21` [biotin, Biotin], the figures for the Ka at streptavidin and on Avidin were ~10^14 M^−1 and 10^13-10^15 M^−1, respectively.

As to `OC[C@H]1O[C@@H](O[C@H]2[C@H](O)[C@@H](O)C(O)O[C@@H]2CO)[C@H](O)[C@@H](O)[C@H]1O` (some centres unmarked) [lactose], the average rupture force at Murine galectin 3 (Fe^3+ surface immobilization of galectin 3) is 71 pN; at Murine galectin 3 (Ni^2+ surface immobilization of galectin 3), 72 pN.

Consider `CO[C@@H]1O[C@H](CO)[C@@H](O[C@@H]2O[C@H](CO)[C@H](O)[C@H](O)[C@H]2O)[C@H](O)[C@H]1O` [β-methyl lactoside], for which the “association constant, the affinity measured by isothermal titration calorimetry” value on galectin 3 is on record as 6400±100.
